For 13 compounds, Tauact mean results are on record in patent publication US10098881B2, “Compounds” (AUTIFONY THERAPEUTICS LIMITED, priority 2011, dated 2018).

The experiment addresses T1, human Kv3.2 channels (hKv3.2) (Homo sapiens, UniProt Q96PR1).
T1 construct: expressed in transfected cells
T1 sequence (Q96PR1 1-638): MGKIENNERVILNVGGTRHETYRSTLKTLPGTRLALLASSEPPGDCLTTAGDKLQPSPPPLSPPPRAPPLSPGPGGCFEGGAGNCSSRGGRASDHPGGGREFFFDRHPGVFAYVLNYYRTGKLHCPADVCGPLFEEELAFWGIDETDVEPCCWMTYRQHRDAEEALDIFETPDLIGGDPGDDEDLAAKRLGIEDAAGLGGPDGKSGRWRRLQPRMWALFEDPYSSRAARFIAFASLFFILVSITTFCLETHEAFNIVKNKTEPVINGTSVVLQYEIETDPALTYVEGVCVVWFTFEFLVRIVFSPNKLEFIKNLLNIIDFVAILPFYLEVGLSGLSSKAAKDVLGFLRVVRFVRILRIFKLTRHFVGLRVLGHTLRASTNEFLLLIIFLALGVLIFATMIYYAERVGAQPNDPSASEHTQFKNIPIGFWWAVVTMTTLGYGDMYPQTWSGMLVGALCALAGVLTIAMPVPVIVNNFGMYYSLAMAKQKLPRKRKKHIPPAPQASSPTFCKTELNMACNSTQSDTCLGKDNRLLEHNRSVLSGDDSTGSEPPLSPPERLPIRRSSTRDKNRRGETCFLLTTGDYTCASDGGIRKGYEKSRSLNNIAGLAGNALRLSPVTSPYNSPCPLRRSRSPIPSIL
Put plainly: Biological Example 1: hKv3.2 whole-cell currents, IonWorks Quattro planar array electrophysiology. To be noted: hKv3.2, -15 mV voltage step. In kind it is cell-based. The source says: The ability of the compounds of the invention to modulate the voltage-gated potassium channel subtypes Kv3.2 or Kv3.1 may be determined using the following assay. Analogous methods may be used to investigate the ability of the compounds of the invention to modulate other channel subtypes, including Kv3.3 and Kv3.4.
To assess compound effects on human Kv3.2 channels (hKv3.2), a stable cell line expressing hKv3.2 was created by transfecting Chinese Hamster Ovary (CHO)-K1 cells with a pClH5-hKv3.2 vector. Cells were cultured in DMEM/F12 medium supplemented by 10% Foetal Bovine Serum, lx non-essential amino acids (Invitrogen) and 500 ug/ml of Hygromycin-B (Invitrogen). Cells were grown and maintained at 37° C. in a humidified environment containing 5% CO2 in air.
The day of the experiment, cells were removed from the incubator and the culture medium removed. Cells were washed with 5 ml of Dulbecco's PBS (DPBS) calcium and magnesium free and detached by the addition of 3 ml Versene (Invitrogen, Italy) followed by a brief incubation at 37° C. for 5 minutes. The flask was tapped to dislodge cells and 10 ml of DPBS containing calcium and magnesium was added to prepare a cell suspension. The cell suspension was then placed into a 15 ml centrifuge tube and centrifuged for 2 min at 1200 rpm. After centrifugation, the supernatant was removed and the cell pellet re-suspended in 4 ml of DPBS containing calcium and magnesium using a 5 ml pipette to break up the pellet. Cell suspension volume was then corrected to give a cell concentration for the assay of approximately 3 million cells per ml.
Experiments were conducted at room temperature using IonWorks Quattro™ planar array electrophysiology technology (Molecular Devices Corp.) with PatchPlate™ PPC. Stimulation protocols and data acquisition were carried out using a microcomputer (Dell Pentium 4). Planar electrode hole resistances (Rp) were determined by applying a 10 mV voltage step across each well. These measurements were performed before cell addition. […] Following this, amphotericin-B solution was added to the intracellular face of the electrode to achieve intracellular access. Cells were held at −70 mV. Leak subtraction was conducted in all experiments by applying 50 ms hyperpolarizing (10 mV) prepulses to evoke leak currents followed by a 20 ms period at the holding potential before test pulses. From the holding potential of −70 mV, a first test pulse to −15 mV was applied for 100 ms and following a further 100 ms at −70 mV, a second pulse to 40 mV was applied for 50 ms. Cells were then maintained for a further 100 ms at −100 mV and then a voltage ramp from −100 mV to 40 mV was applied over 200 ms. Test pulses protocol may be performed in the absence (pre-read) and presence (post-read) of the test compound. Pre- and post-reads may be separated by the compound addition followed by a 3 minute incubation.
The intracellular solution contained the following (in mM): K-gluconate 100, KCl 54, MgCl2 3.2, HEPES 5, adjusted to pH 7.3 with KOH. Amphotericin-B solution was prepared as […] stock solution in DMSO and diluted to a final working concentration of 0.1 mg/ml in intracellular solution.
Compounds of the invention (or reference compounds such as N-cyclohexyl-N-[(7,8-dimethyl-2-oxo-1,2-dihydro-3-quinolinyl)methyl]-N′-phenylurea were dissolved in dimethylsulfoxide (DMSO) at a stock concentration of 10 mM. These solutions were further diluted with DMSO using a Biomek FX
Each dilution (1 μL) was transferred to another compound plate and external solution containing 0.05% pluronic acid (66 μL) was added. 3.5 μL from each plate containing a compound of the invention was added and incubated with the cells during the lonWorks Quattro™ experiment. The final assay dilution was 200 and the final compound concentrations were in the range 50 μM to 50 nM.

Where [1] appears, read: compound 1.6 μM (concentration giving ~0.3 nA current at end of pulse).
[2] abbreviates: compound 0.8 μM (concentration giving ~0.3 nA current at end of pulse).
Where [3] appears, read: compound 0.4 μM (concentration giving ~0.3 nA current at end of pulse).

The compound `CC[C@@]1(C)NC(=O)N(c2cnc(Oc3ccc(C)c4c3C3(CC3)CO4)nc2)C1=O` [Example 1, (5R)-5-ethyl-5-methyl-3-[2-(7-methylspiro[2H-benzofuran-3,1′-cyclopropane]-4-yl)oxypyrimidin-5-yl]imidazolidine-2,4-dione] returned a Tauact mean under setting [1] of 21.3 ms. Same read-out and setting: to `CC[C@@]1(C)NC(=O)N(c2cnc(Oc3ccc(C)c4c3C(C)(C)CO4)nc2)C1=O` [Example 2, (5R)-5-ethyl-5-methyl-3-{2-[(3,3,7-trimethyl-2,3-dihydro-1-benzofuran-4-yl)oxy]-5-pyrimidinyl}-2,4-imidazolidinedione] belongs 14.8 ms. On to `CC[C@@]1(C)NC(=O)N(c2cnc(Oc3ccc(C)c4c3OC(F)(F)O4)nc2)C1=O` [Example 3, (5R)-3-{2-[(2,2-difluoro-7-methyl-1,3-benzodioxol-4-yl)oxy]-5-pyrimidinyl}-5-ethyl-5-methyl-2,4-imidazolidinedione], for which the Tauact mean (compound 25.0 μM (concentration giving ~0.3 nA current at end of pulse)) was determined as 8.9 ms. Regarding `CC[C@H]1NC(=O)N(c2cnc(Oc3ccc(C)c4c3C3(CC3)CO4)nc2)C1=O` [Example 5, (5R)-5-ethyl-3-[2-(7-methylspiro[2H-benzofuran-3,1′-cyclopropane]-4-yl)oxypyrimidin-5-yl]imidazolidine-2,4-dione], the Tauact mean under setting [2] was 31.5 ms. Take `CC[C@H]1NC(=O)N(c2ccc(Oc3ccc(C)c4c3C3(CC3)CO4)nc2)C1=O` [Example 6, (5R)-5-ethyl-3-[6-(7-methylspiro[2H-benzofuran-3,1′-cyclopropane]-4-yl)oxy-3-pyridyl]imidazolidine-2,4-dione]: the Tauact mean under setting [3] stood at 34.8 ms. Under setting [3], `CC[C@H]1NC(=O)N(c2ccc(Oc3ccc(C)c4c3C(C)(C)CO4)nc2)C1=O` [Example 7, (5R)-5-ethyl-3-{6-[(3,3,7-trimethyl-2,3-dihydro-1-benzofuran-4-yl)oxy]-3-pyridinyl}-2,4-imidazolidinedione] came in with a Tauact mean of 28.0 ms. Compound `CC[C@H]1NC(=O)N(c2cnc(Oc3ccc(C)c4c3C(C)(C)CO4)nc2)C1=O` [Example 8, (5R)-5-ethyl-3-{2-[(3,3,7-trimethyl-2,3-dihydro-1-benzofuran-4-yl)oxy]-5-pyrimidinyl}-2,4-imidazolidinedione] yielded a Tauact mean under setting [1] of 25.0 ms. `CC[C@@]1(C)NC(=O)N(c2ccc(Oc3ccc(C)c4c3C3(CC3)CO4)nc2)C1=O` [Example 9, (5R)-5-ethyl-5-methyl-3-[6-(7-methylspiro[2H-benzofuran-3,1′-cyclopropane]-4-yl)oxy-3-pyridyl]imidazolidine-2,4-dione] showed a Tauact mean under setting [2] of 24.0 ms. Consider `Cc1ccc(Oc2ccc(N3C(=O)NC(C)(C)C3=O)cn2)c2c1OCC21CC1` [Example 10, 5,5-dimethyl-3-[6-(7-methylspiro[2H-benzofuran-3,1′-cyclopropane]-4-yl)oxy-3-pyridyl]imidazolidine-2,4-dione], for which, under setting [1], the Tauact mean is recorded as 17.3 ms. On to `CC[C@H]1NC(=O)N(c2ccc(Oc3ccc(C)c(OC)c3)nc2)C1=O` [RE1, (5R)-5-ethyl-3-(6-{[4-methyl-3-(methyloxy)phenyl]oxy}-3-pyridinyl)-2,4-imidazolidinedione, reference compound], for which the Tauact mean (compound 6.25 μM (concentration giving ~0.3 nA current at end of pulse)) worked out at 9.9 ms. `CC[C@@]1(C)NC(=O)N(c2ccc(Oc3ccc(C)c(OC)c3)nc2)C1=O` [RE2, (5R)-5-ethyl-5-methyl-3-(6-{[4-methyl-3-(methyloxy)phenyl]oxy}-3-pyridinyl)-2,4-imidazolidinedione, reference compound]: the Tauact mean (compound 12.5 μM (concentration giving ~0.3 nA current at end of pulse)) is listed as 7.3 ms. `CC[C@H]1NC(=O)N(c2ccc(Oc3ccc(C#N)cc3C(C)(C)C)nc2)C1=O` [RE3, 3-(1,1-dimethylethyl)-4-({5-[(4R)-4-ethyl-2,5-dioxo-1-imidazolidinyl]-2-pyridinyl}oxy)benzonitrile, reference compound] registered a Tauact mean (compound 0.2 μM (concentration giving ~0.3 nA current at end of pulse)) of 23.0 ms.

In turn, `CC[C@H]1NC(=O)N(c2ccc(Oc3ccc(C#N)c(C(C)C)c3)nc2)C1=O` [RE4, 4-({5-[(4R)-4-ethyl-2,5-dioxo-1-imidazolidinyl]-2-pyridinyl}oxy)-2-(1-methylethyl)benzonitrile, reference compound] had a Tauact mean under setting [2] of 9.2 ms.
